For one assay, the system named is HeLa cells. Nature of the assay: Isobaric tagging (TMT) MS proteomics in HeLa cells, proteome-wide degradation. Format: cell-based, Human. As to conditions: 1 µM for 10 h, compared to DMSO or VHL inhibitor treatment. As for the experimental part: (§1) MS proteomics. Sample preparation. HeLa cells were seeded at 5 × 10^6 on a 10 cm plate 16 h before treatment. […] Cells were incubated at 37 °C and 5% CO2 for 10 h before harvesting. Cells were placed on ice and medium was removed and cells were washed twice with cold PBS. Cells were lysed in 0.5 ml of 100 mM Tris pH 8.0, 4% (w/v) SDS supplemented with protease inhibitor cocktail (Roche). The lysate was pulse sonicated briefly and then centrifuged at 17,000 × g for 15 min at 4 °C. The supernatant fraction of cell extract was snap-frozen in liquid nitrogen and stored in −80 °C freezer. Further sample processing, digestion, desalting, labeling and fractionation were performed as previously described.
(§2) nLC-MS/MS analysis. The TMT 10plex fractions were first analyzed as previously described. Briefly, the TMT 10plex fractions were analyzed sequentially on a Q Exactive HF Hybrid Quadrupole-Orbitrap Mass Spectrometer (Thermo Scientific) coupled to an UltiMate 3000 RSLCnano UHPLC system (Thermo Scientific) and EasySpray column (75 μm × 50 cm, PepMap RSLC C18 column, 2 μm, 100 Å, Thermo Scientific). The MS2 isolation window was set to 0.4 Da and the resolution set at 120,000. MS2 resolution was set at 60,000. The AGC targets for MS1 and MS2 were set at 3e^6 ions and 1e5 ions, respectively. The normalized collision energy was set at 32%. […] After the first analysis, the TMT labeled fractions were re-analyzed on the Q-Exactive HF using the same instrument settings and a target list generated from a theoretical trypsin digest of VHL. […] After the second analysis, two fractions were further analyzed using a targeted SIM/ddMS2 method on the Q-Exactive HF. […]
(§3) Peptide and protein identification. All the raw MS data files from the three analyses were merged and searched against the Uniprot-sprot-Trembl-Human-Canonical database by Maxquant software 1.5.3.30 for protein identification and TMT reporter ion quantitation. […] Quantified proteins were filtered if the absolute fold-change difference between the two DMSO replicates was ≥ 1.5.

Assay [1] relates to Protein-glutamine gamma-glutamyltransferase E (TGM3). Nature of the assay: TMT MS proteomics in HeLa cells, TGM3 abundance. As to conditions: 1 µM, 10 h, two replicates. The class given is cell-based, Homo sapiens. The protocol: as §1, §2, §3
Assay [2] deals with Putative glycerol kinase 5 (GK5). Nature of the assay: TMT MS proteomics in HeLa cells, GK5 abundance. As to conditions: 1 µM, 10 h, two replicates. Format: cell-based, Homo sapiens. The protocol:
as §1, §2, §3

The next assay deals with pVHL19 (Homo sapiens, UniProt P40337). Nature of the assay: Immunoblot of pVHL19 protein level in HeLa cells after compound treatment. Format: cell-based. Details: endogenous in cells; host or cells: HeLa. The conditions noted are these: 1 µM, 10 h, DMSO = 100, Fig. 4a, read-out: pVHL19 band quantification normalized to 0.1% DMSO. The protocol: Cell culture. Human cell lines HeLa, U2OS and HEK 293, purchased from ATCC, were propagated in DMEM supplemented with 10% fetal bovine serum (FBS), L- glutamine, 100 μg ml^−1 of penicillin/streptomycin at 37 °C and 5% CO2. Cells were maintained for no more than 30 passages. All cell lines were routinely tested for mycoplasma contamination using MycoAlert kit from Lonza. For compound treatment experiments, cells were transferred in six-well plates with either 3 × 10^5 or 5 × 10^5 cells per well in 2 ml of media. At 80% confluence, cells were treated with compounds at the desired concentration, reaching final DMSO concentration of 0.1% v/v. Cells were incubated at 37 °C and 5% CO2 for the desired time before harvesting.
Sequence of pVHL19 (P40337 54-213): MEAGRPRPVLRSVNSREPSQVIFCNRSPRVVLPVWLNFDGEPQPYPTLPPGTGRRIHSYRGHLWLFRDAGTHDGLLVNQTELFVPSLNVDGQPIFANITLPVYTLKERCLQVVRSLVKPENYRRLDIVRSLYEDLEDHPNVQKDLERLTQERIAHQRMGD
Sequence of pVHL19 (Q15369 whole entry partner): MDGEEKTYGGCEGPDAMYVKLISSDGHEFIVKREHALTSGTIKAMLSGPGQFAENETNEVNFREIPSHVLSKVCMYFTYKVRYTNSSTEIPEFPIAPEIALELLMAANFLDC
Sequence of pVHL19 (Q15370 whole entry partner): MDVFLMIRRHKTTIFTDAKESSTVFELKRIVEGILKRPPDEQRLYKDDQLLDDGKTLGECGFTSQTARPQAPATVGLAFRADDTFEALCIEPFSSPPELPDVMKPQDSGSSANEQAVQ
Immunoblotting. Cells were lysed in lysis buffer (20 mM Tris pH 8, 150 mM NaCl, 1% Triton × 100) and a protease inhibitor cocktail (Roche) per 10 ml buffer. For protein extracts, the dishes were placed on ice. The media was aspirated and the tissue layer washed twice with ice-cold phosphate buffer saline (PBS). Lysis buffer (120 μl) was added and the cells detached from the surface with a cell scraper. After removal of the insoluble fraction by centrifugation, the protein concentration of the supernatant was determined by Pierce™ Coomassie (Bradford) Protein Assay Kit. Protein extracts were fractionated by SDS-PAGE on 4–12% Tris-Acetate NuPage® Novex® (Life Technologies) polyacrylamide gels and transferred to a nitrocellulose membrane using wet transfer. The membrane was then blocked with 5 % w/v Bovine serum albumin (BSA) in Tris-buffered saline (TBS) with 0.1% w/v Tween-20. For detecting proteins the following primary antibodies in the given concentrations were used: anti-β-Actin (Cell Signaling Technology, 4970S, 13E5) 1:2000, anti-VHL (Cell Signaling Technology, #68547) 1:1000, anti-Hif-1α (BD Biosciences, 610959, clone 54) 1:1,000, anti-hydroxy-HIF-1α (Hyp564) (Cell Signaling Techonology; #3434) 1:1,000, anti-PHD2 (Bethyl Laboratories; A300-322A) 1:1,000, anti-PHD3 (Bethyl Laboratories; A300-327A) 1:1000, anti-CRBN (Proteintech; 11435-1-AP) 1:1,000. Following incubation with a horseradish peroxidase-conjugated secondary antibody (Cell Signaling Technology), the signal was developed using enhanced chemiluminescence (ECL) Western Blotting Detection Kit (Amersham) on Amersham Hyperfilm ECL film (Amersham). Band quantification was performed using ImageJ software and reported as relative amount as ratio of the each protein band relative to the lane’s loading control. The values obtained were then normalized to 0.1% DMSO vehicle control. See Supplementary Fig. 12 for full-scanned images of western-blots shown in the main text figures.
For orientation: A western blot detects proteins with antibodies after separation by electrophoresis.

On to `Cc1ncsc1-c1ccc(CNC(=O)[C@@H]2C[C@@H](O)CN2C(=O)[C@@H](NC(=O)COCCOCCOCCOCC(=O)N[C@H](C(=O)N2C[C@H](O)C[C@H]2C(=O)NCc2ccc(-c3scnc3C)cc2)C(C)(C)C)C(C)(C)C)cc1` [CM09, N ^1 ,N ^14-bis((S)-1-((2S,4R)-4-hydroxy-2-((4-(4-methylthiazol-5-yl)benzyl)carbamoyl)pyrrolidin-1-yl)-3,3-dimethyl-1-oxobutan-2-yl)-3,6,9,12-tetraoxatetradecanediamide], for which the “proteins depleted amongst 6,450 detected proteins” value in the assay on HeLa cells is given as “no proteins other than Cul2 were substantially depleted”. For the same molecule, the “average normalized ratio to DMSO, TGM3” value in assay [1] worked out at 1.74. The “average normalized ratio to DMSO, GK5” value in assay [2] is 1.05. Also, the remaining activity at 1 µM on pVHL19 amounted to 102%.
As for `Cc1ncsc1-c1ccc(CNC(=O)[C@@H]2C[C@@H](O)CN2C(=O)[C@@H](NC(=O)COCCOCCOCCOCCOCC(=O)N[C@H](C(=O)N2C[C@H](O)C[C@H]2C(=O)NCc2ccc(-c3scnc3C)cc2)C(C)(C)C)C(C)(C)C)cc1` [CM10, N ^1 ,N ^17-bis((S)-1-((2S,4R)-4-hydroxy-2-((4-(4-methylthiazol-5-yl)benzyl)carbamoyl)pyrrolidin-1-yl)-3,3-dimethyl-1-oxobutan-2-yl)-3,6,9,12,15-pentaoxaheptadecanediamide], the “proteins depleted amongst 6,450 detected proteins” value in the assay with HeLa cells was “no proteins other than Cul2 were substantially depleted”. In assay [1], the “average normalized ratio to DMSO, TGM3” value was determined as 0.99. The “average normalized ratio to DMSO, GK5” value in assay [2] is 1.22. Further, the remaining activity at 1 µM at pVHL19 came to 92%.
On to `Cc1ncsc1-c1ccc(CNC(=O)[C@@H]2C[C@@H](O)CN2C(=O)[C@@H](NC(=O)COCCOCCOCCOCCOCCOCC(=O)N[C@H](C(=O)N2C[C@H](O)C[C@H]2C(=O)NCc2ccc(-c3scnc3C)cc2)C(C)(C)C)C(C)(C)C)cc1` [CM11, N ^1 ,N ^20-bis((S)-1-((2S,4R)-4-hydroxy-2-((4-(4-methylthiazol-5-yl)benzyl)carbamoyl)pyrrolidin-1-yl)-3,3-dimethyl-1-oxobutan-2-yl)-3,6,9,12,15,18-hexaoxaicosanediamide], for which the “proteins depleted amongst 6,450 detected proteins” value with HeLa cells is “no proteins other than Cul2 were substantially depleted”. Further, in assay [1], the “average normalized ratio to DMSO, TGM3” value came to 0.72. Besides, in assay [2], the “average normalized ratio to DMSO, GK5” value is 0.94. Also, on pVHL19, the remaining activity at 1 µM came to 91%.

Source of the values: PMC5635026, “Homo-PROTACs: bivalent small-molecule dimerizers of the VHL E3 ubiquitin ligase to induce self-degradation” (Nature Communications, 2017).
